Measurements from patent US7820659B2, “Cyclohexylimidiazole lactam derivatives as inhibitors of 11-β-hydroxysteroid dehydrogenase 1” (Eli Lilly and Company, priority 2006, dated 2010).

Assays:
[1] = molecular target: T1, 11β-HSD1 in primary human aortic smooth muscle cells (AoSMC) (Homo sapiens, UniProt P28845); assay: Human Aortic Smooth Muscle Cell Assay (cortisone to cortisol conversion); assay type: cell-based; settings: hTNFα-induced 11β-HSD1, cortisol by time resolved immunoassay
T1 construct: containing 12 ng/mL hTNFα to induce expression of 11β-HSD1; endogenous in cells; host or cells: primary human aortic smooth muscle cells (AoSMC), induced with hTNFα
T1 sequence (P28845 whole entry): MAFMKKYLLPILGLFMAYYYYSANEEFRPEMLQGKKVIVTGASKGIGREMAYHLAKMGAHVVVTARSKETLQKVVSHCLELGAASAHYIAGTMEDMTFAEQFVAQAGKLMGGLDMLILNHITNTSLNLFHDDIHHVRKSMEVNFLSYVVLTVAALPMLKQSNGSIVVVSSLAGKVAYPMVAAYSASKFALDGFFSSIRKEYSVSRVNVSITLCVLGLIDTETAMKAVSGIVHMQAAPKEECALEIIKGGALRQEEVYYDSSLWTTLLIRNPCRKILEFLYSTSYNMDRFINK
Experimental: Human Aortic Smooth Muscle Cell Assay
Primary human aortic smooth muscle cells (AoSMC) are cultured in 5% FBS growth medium to a passage number of 6, then pelleted by centrifugation and resuspended at a density of 9×10^4 cells/mL in 0.5% FBS assay medium containing 12 ng/mL hTNFα to induce expression of 11β-HSD1. Cells are seeded into 96-well tissue culture assay plates at 100 μL/well (9×10^3 cells/well) and incubated for 48 hours at 37° C., 5% CO2. Following induction, cells are incubated for 4 hours at 37° C., 5% CO2 in assay medium containing test compounds then treated with 10 μL/well of 10 μM cortisone solubilized in assay medium, and incubated for 16 hours at 37° C., 5% CO2. Medium from each well is transferred to a plate for subsequent analysis of cortisol using a competitive fluorescence resonance time resolved immunoassay. In solution, an allophycocyanin (APC)-cortisol conjugate and free cortisol analyte compete for binding to a mouse anti-cortisol antibody/Europium (Eu)-anti mouse IgG complex. Higher levels of free cortisol result in diminishing energy transfer from the Europium-IgG to the APC-cortisol complex resulting in less APC fluorescence. Fluorescent intensities for Europium and APC are measured using a LJL Analyst AD. Europium and APC excitation is measured using 360 nm excitation and 615 nm and 650 nm emission filters respectively. Time resolved parameters for Europuium were 1000 μs integration time with a 200 μs delay. APC parameters are set at 150 μs integration time with a 50 μs delay. Fluorescent intensities measured for APC are modified by dividing by the Eu fluorescence (APC/Eu). This ratio is then used to determine the unknown cortisol concentration by interpolation using a cortisol standard curve fitted with a 4-parameter logistic equation. These concentrations are then used to determine compound activity by plotting concentration versus % inhibition, fitting with a 4-parameter curve and reporting the IC50.

[2] = molecular target: recombinant human 11β-HSD type 1 enzyme (Homo sapiens, UniProt P28845); assay: 11β-HSD Type 1 Enzyme Assay (NADPH fluorescence); assay type: biochemical; settings: three hour incubation at room temperature, read-out: Human 11-βHSD1 IC50
recombinant human 11β-HSD type 1 enzyme, sequence (P28845 whole entry): as above
Experimental: 11β-HSD Type 1 Enzyme Assay
Human 11β-HSD type 1 activity is measured by assaying NADPH production by fluorescence assay. Solid compounds are dissolved in DMSO to a concentration of 10 mM. Twenty microliters of each are then transferred to a column of a 96-well polypropylene Nunc plate where they are further diluted 50-fold followed by subsequent two-fold titration, ten times across the plate with additional DMSO using a Tecan Genesis 200 automated system. Plates are then transferred to a Tecan Freedom 200 system with an attached Tecan Temo 96-well head and an Ultra 384 plate reader. Reagents are supplied in 96-well polypropylene Nunc plates and are dispensed individually into black 96-well Molecular Devices High Efficiency assay plates (40 μL/well capacity) in the following fashion: 9 μL/well of substrate (2.22 mM NADP, 55.5 μM Cortisol, 10 mM Tris, 0.25% Prionex, 0.1% Triton X100), 3 μL/well of water to compound wells or 3 μL to control and standard wells, 6 μL/well recombinant human 11β-HSD type 1 enzyme, 2 μL/well of compound dilutions. […] Final DMSO concentration is 0.5% for all compounds, controls and standards. Plates are then placed on a shaker by the robotic arm of the Tecan for 15 seconds before being covered and stacked for a three hour incubation period at room temperature. Upon completion of this incubation, the Tecan robotic arm removes each plate individually from the stacker and places them in position for addition of 5 μL/well of a 250 μM carbenoxolone solution to stop the enzymatic reaction. Plates are then shaken once more for 15 seconds then placed into an Ultra 384 microplate reader (355EX/460EM) for detection of NADPH fluorescence.

cortisone conversion = assay: Acute In Vivo Cortisone Conversion Assay; set-up: species or system male C57BL/6 mice; settings: mice, oral dose of 10 mg/kg, cortisone challenge 30 mg/kg s.c. after 16 hours, serum cortisol by LC-MS/MS
Experimental: Acute In Vivo Cortisone Conversion Assay
In general, compounds are dosed orally into mice, the mice are challenged with a subcutaneous injection of cortisone at a set timepoint after compound injection, and the blood of each animal is collected some time later. Separated serum is then isolated and analyzed for levels of cortisone and cortisol by LC-MS/MS, followed by calculation of mean cortisol and percent inhibition of each dosing group. Specifically, male C57BL/6 mice are obtained from Harlan Sprague Dawley at average weight of 25 grams. Exact weights are taken upon arrival and the mice randomized into groups of similar weights. Compounds are prepared in 1% w-w HEC, 0.25% w-w polysorbate 80, 0.05% w-w Dow Corning antifoam #1510-US at various doses based on assumed average weight of 25 grams. Compounds are dosed orally, 200 μl per animal, followed by a subcutaneous dose, 200 μl per animal, of 30 mg/kg cortisone at 1 to 24 hours post compound dose. At 10 minutes post cortisone challenge, each animal is euthanized for 1 minute in a CO2 chamber, followed by blood collection via cardiac puncture into serum separator tubes. Once fully clotted, tubes are spun at 2500×g, 4° C. for 15 minutes, the serum transferred to wells of 96-well plates (Corning Inc, Costar #4410, cluster tubes, 1.2 ml, polypropylene), and the plates are frozen at −20° C. until analysis by LC-MS/MS. For analysis, serum samples are thawed and the proteins are precipitated by the addition of acetonitrile containing d-4-cortisol internal standard. Samples are vortex mixed and centrifuged. The supernatant is removed and dried under a stream of warm nitrogen. Extracts are reconstituted in methanol/water (1:1) and injected onto the LC-MS/MS system. The levels of cortisone and cortisol are assayed by selective reaction monitoring mode following positive ACPI ionization on a triple quadrupole mass spectrophotometer.

Row | SMILES | IC50 [1] [nM] | IC50 [2] [nM] | % Inhibition after 16 hours (dose of 10 (mg/kg)) (cortisone conversion) [%]
1 | O=C1C(Cc2c(Cl)cc(-c3ccc(F)cc3)cc2Cl)CCN1C1CCc2[nH]cnc2C1 (stereo not shown) [Example 15, 3-(3,5-Dichloro-4′-fluoro-biphenyl-4-ylmethyl)-1-(4,5,6,7-tetrahydro-1H-benzoimidazol-5-yl)-pyrrolidin-2-one] | 3.2 | 214 | 
2 | O=C1C(Cc2c(Cl)cc(-c3ccc(Cl)cc3)cc2Cl)CCN1C1CCc2nc[nH]c2C1 (stereo not shown) [Example 1, 1-(4,5,6,7-Tetrahydro-3H-benzoimidazol-5-yl)-3-(3,5,4′-trichloro-biphenyl-4-ylmethyl)-pyrrolidin-2-one] | 6.8 | 325 | 
3 | O=C(c1ccc(-c2cc(Cl)c(C[C@@H]3CCN(C4CCc5nc[nH]c5C4)C3=O)c(Cl)c2)cc1)N1CCC(C(F)(F)F)CC1 (stereo partly shown) [Example 42, 3-[R]-[3,5-Dichloro-4′-(4-trifluoromethyl-piperidine-1-carbonyl)-biphenyl-4-ylmethyl]-1-(4,5,6,7-tetrahydro-3H-benzoimidazol-5-yl)-pyrrolidin-2-one] | 4.5 | 143 | 98.4
4 | O=C1[C@H](Cc2c(Cl)cc(-c3ccc(N4CCOCC4)nc3F)cc2Cl)CCN1C1CCc2[nH]cnc2C1 (stereo partly drawn) [Example 32, (R)-3-[2,6-Dichloro-4-(2-fluoro-6-morpholin-4-yl-pyridin-3-yl)-benzyl]-1-(4,5,6,7-tetrahydro-1H-benzoimidazol-5-yl)-pyrrolidin-2-one] | 3 | 175 | 59.2
5 | O=C1[C@H](Cc2c(Cl)cc(-c3ccc(N4CCOCC4)cc3)cc2Cl)CCN1C1CCc2[nH]cnc2C1 (stereo partly drawn) [Example 29, (R)-3-(3,5-Dichloro-4′-morpholin-4-yl-biphenyl-4-ylmethyl)-1-(4,5,6,7-tetrahydro-1H-benzoimidazol-5-yl)-pyrrolidin-2-one] | 0.6 | 75.4 | 52
